Measurements reported in patent US20040259853A1, “Methods for preventing acute clinical vascular events in a subject” (The Trustees of Columbia University, priority 2000, published 2004).
Where a SMILES comes first, the peptide text is derived from it. [ ]: non-standard residue; d: D form. Nle = CCCC[C@H](N)C(=O)O

Key:
ABCA1 protein = assay: ABCA1 immunoblot of total and cell-surface protein in cholesterol-loaded macrophages; format: cell-based, mouse; settings: for decrease in ABCA1 protein in free cholesterol-loaded macrophages: 50 μM; for decrease in ABCA1 protein in FC-loaded macrophages: calpeptin 40 μM, PD150606 25 μM (data not shown)
Method: Macrophages were pre-incubated for 14 h with 50 μg/ml acetyl-LDL in DMEM, 0.2% BSA, in the absence (CE) or presence (FC) of 58035. The cells were then incubated for 5 h with 100 μg/ml acetyl-LDL in DMEM, 0.2% BSA, in the absence or presence of 58035, respectively, with no further additions (Control) or in the presence of 10 μg/ml cycloheximide, 50 μM ALLN, or 50 μM lactacystin as indicated. Aliquots of cell lysates were then assayed for ABCA1 and β-actin protein by immunoblot analysis.
Macrophages were pre-incubated for 14 h with 50 μg/ml acetyl-LDL in DMEM, 0.2% BSA, in the absence (CE) or presence (FC) of 58035. […] Aliquots of total cell protein (top panel) or cell-surface protein (bottom panel) were then subjected to immunoblot analysis for ABCA1 and the standards β-actin or β1-integrin.
Macrophage monolayers in 35-mm dishes were washed with ice-cold PBS 3 times and then incubated with ice-cold PBS containing 0.5 mg/ml NHS—SS-biotin (Pierce) for 30 minutes at 4° C. After washing 5 times with ice-cold PBS containing 20 mM Tris-HCl, pH 8.0, the cells were scraped into PBS and pelleted by centrifugation. The pelleted macrophages were lysed in 50 μl RIPA buffer (0.5% sodium deoxycholate, 0.1% SDS, 1% Triton X-100, 20 mM Tris, 150 mM NaCl, and 5 mM EDTA, pH 8) containing 1 mM PMSF. […] of the lysate were subjected directly to 4-20% gradient SDS-polyacrylamide gel electrophoresis (SDS-PAGE) for determination of total ABCA1. The rest of the cell lysate was affinity-purified to isolate biotinylated proteins. Briefly, the cell lysates were diluted to 150 μl in RIPA buffer and incubated with 50 μl immobilized streptavidin agarose (Pierce), which was pre-washed three times with RIPA buffer at 0° C. for 2 h with gentle shaking. The agarose was pelleted by centrifugation using a microcentrifuge at 5,000 rpm for 2 min; the pellet was resuspended in 1 ml RIPA buffer, and the process was repeated 5 times. The agarose was resuspended 30 μl SDS-PAGE loading buffer containing 330 mM β-mercaptoethanol at 37^6C for 15 min and subjected to SDS-PAGE as above. ABCA1 and β-integrin were detected by Western blot using anti-ABCA1 and anti-β-integrin anti-sera. The blots were reprobed with anti-β-actin antibody, which detected no actin signal, thus verifying that no cytosolic protein was biotinylated by the procedure.
Peritoneal macrophages were lysed in RIPA buffer containing 1 mM PMSF. Nuclei were removed by centrifugation at 3000×g for 10 min at 4° C. […] For Western blot detection of ABCA1, anti-ABCA1 antiserum was used. Signals were detected using HRP-conjugated secondary anti-bodies (Bio-Rad) and ECL (Amersham Pharmacia Biotech). The membranes were reprobed with anti-β actin monoclonal antibody or anti-β1-integrin anti-serum for the proper internal controls. The relative intensities of the bands were determined by densitometry.

[1] = system: unfolded protein response (UPR); assay: Immunoblot analysis of UPR markers (CHOP, PERK, IRE1α, XBP-1) in macrophages; settings: 58035 alone, 5 h (FIG. 16B, lane 2)
Method: For detection of PERK, nuclei-free cell extracts were immunoprecipitated with anti-PERK antiserum and then immunoblotted, while for detection of ATF-4 and CHOP, immunoblots were performed on nuclear extracts. Lamin B, a nuclear protein, was used as the loading control.
Immunoprecipitation and immunoblot detection for IRE1α and PERK were conducted as described by Harding et al. (35). Immunoblot analyses of XBP-1, ATF4, and CHOP were carried out as described previously (36,38) with minor modifications. Briefly, cells were lysed in RIPA buffer to prepare whole-cell lysates or to prepare nuclei by centrifugation. The whole-cell lysates or nuclei were resuspended in 2×SDS-PAGE loading buffer and incubated at 95° C. for 10 min. Whole cell (100 μg) or nuclear lysates (20 μg) were electrophoresed on 4-20% gradient SDS-PAGE gels and electrotransferred to 0.22-μm nitrocellulose membrane using a Bio-Rad mini-transfer tank. After incubation with primary antibodies, the protein bands were detected with HRP-conjugated secondary antibodies (Bio-Rad) and ECL (Amersham Pharmacia Biotech). The membranes were reprobed with an anti-β-actin monoclonal antibody or an anti-lamin B serum to control for differences in loading.

[2] = system: ABCA1-mediated cholesterol efflux; assay: 3H-cholesterol efflux to apoA-I from free cholesterol-loaded macrophages; format: cell-based, mouse; settings: for cholesterol efflux to apoA-I from FC-loaded NPC+/− macrophages: 200 μM, 18 h apoA-1 incubation (FIG. 9D)
Method: Peritoneal macrophages from C57 mice were incubated for 5 h with 100 μg/ml ^3H-cholesterol-labeled acetyl-LDL in DMEM, 0.2% BSA, in the presence of 10 μg/ml 58035.
Acetyl-LDL (800 μg) was incubated with 10 μCi ^3H-cholesterol for 30 min at 37° C., followed by addition of 8 ml of DMEM, 0.2% BSA. The macrophages were incubated with this medium for 5 h, washed 3 times with PBS, and then incubated with DMEM, 0.2% BSA for 15 min at 37° C. After washing with PBS, the macrophages were incubated with DMEM, 0.2% BSA, containing either 15 μg/ml apoAI or 20 μg/ml HDL2. At the indicated time points, 100 μl of media was removed and centrifuged for 5 min at 14,000 rpm to pellet cellular debris. The radioactivity in this fraction of media was quantitated by liquid scintillation counting. After the last time point, the remainder of the media was removed, and the cells were dissolved in 0.5 ml of 0.1 N NaOH containing 0.5% sodium dodecylsulfate (5 h at room temperature). A 100 μl-aliquot of the cell lysate was counted, and the percent efflux was calculated as (media cpm)[…](cell +media cpm)×100. Total protein in the cell lysate was determined using the Bio-Rad DC protein assay kit. Note that there was no statistical difference in cellular cpm or protein between cholesteryl ester- and free cholesterol-loaded macrophages.

[3] = system: ABCA1 transporter activity (phospholipid efflux to apoA-I); assay: 3H-phospholipid efflux to apoA-I from free cholesterol-loaded macrophages; format: cell-based, mouse; settings: 15 min at 37° C.
Method: Aliquots of free cholesterol-loaded cells were incubated for 15 min at 37° C. in the absence or presence of 0.5% or 0.2% […] (CD). This treatment removes about 30% of total cellular cholesterol. All cells were then chased with media containing 15 μg/ml apoA-I for 3.33 h and phospholipid efflux was measured as in FIG. 6C.
Macrophages were labeled with ^3H-choline (5 μCi/ml) in DMEM, 10% FBS, for 24 h. After washing three times with PBS, the macrophages were incubated with 100 μg/ml acetyl-LDL+58035 in DMEM, 0.2% BSA, for 5 h. The cells were then incubated with 15 μg/ml apoA-1 in DMEM, 0.2% BSA, for the indicated time periods. ^3H-choline-containing phospholipids in aliquots of the medium were extracted in chloroform:methanol (2:1, v/v), and those remaining in the cells in hexane:isopropyl alcohol (3:2, v/v). The radioactivity was measured by scintillation counting.

## CCCC[C@@H](C=O)NC(=O)[C@H](CC(C)C)NC(=O)[C@H](CC(C)C)NC(C)=O [ALLN] (Ac-Leu-Leu-[Nle]-aldehyde)
ABCA1 protein; 5 h (FIG. 8B)
  decrease in ABCA1 protein in free cholesterol-loaded macrophages: blocked the decrease in ABCA1

## O=C(O)/C(S)=C/c1ccc(I)cc1 [PD150606]
ABCA1 protein
  decrease in ABCA1 protein in FC-loaded macrophages: did not affect the decrease in ABCA1

## CCCC[C@@H](C=O)NC(=O)[C@H](CC(C)C)NC(=O)OCc1ccccc1 [calpeptin]
ABCA1 protein
  decrease in ABCA1 protein in FC-loaded macrophages: did not affect the decrease in ABCA1

## CCCCCCCCCC[Si](C)(C)CCC(=O)NC(Cc1ccc(C)cc1)c1ccccc1 (stereo not shown) [compound 58035, 3-[decyldimethylsilyl]-N-[2-(4-methylphenyl)-1-phenylethyl] propanamide]
[1]
  PERK activation in macrophages: partially activate PERK

## C[C@@H]1C[C@@H]([C@H](O)CC2CC(=O)NC(=O)C2)C(=O)[C@@H](C)C1 [cycloheximide]
ABCA1 protein; 10 μg/ml cycloheximide, 5 h (FIG. 8B)
  decrease in ABCA1 protein in free cholesterol-loaded cells: insensitive

## COc1ccc(Cl)cc1C(=O)NCCc1ccc(S(=O)(=O)NC(=O)NC2CCCCC2)cc1 [glyburide]
[2]
  cholesterol efflux to apoA-I from FC-loaded NPC+/− macrophages: effectively blocked

## CN(C)CCCN1c2ccccc2CCc2ccccc21 [imipramine]
ABCA1 protein; low concentrations
  ABCA1 protein expression in free cholesterol-loaded cells: markedly enhance
[2]; FC-loaded macrophages (FIGS. 11A, 11B)
  induction of cholesterol efflux to ApoA-1: marked ability to induce cholesterol efflux to ApoA-1
[2]; optimal low doses, FC-loaded macrophages (FIG. 12A)
  restoration of ABCA1-dependent efflux: restored ABCA1-dependent efflux

## CC(=O)N[C@@H](CSC(=O)[C@]1([C@@H](O)C(C)C)NC(=O)[C@H](C)[C@@H]1O)C(=O)O [lactacystin]
ABCA1 protein; 5 h (FIG. 8B)
  decrease in ABCA1 protein in free cholesterol-loaded macrophages: blocked the decrease in ABCA1

## [Na+].[Na+].[Na+].[O]=[V]([O-])([O-])[O-] [ortho-vanadate, sodium orthovanadate]
[2]
  cholesterol efflux to apoA-I from FC-loaded NPC+/− macrophages: effectively blocked

## methyl-β-cyclodextrin
[3]; 0.5% or 0.2% (FIG. 6E)
  defect in phosphatidylcholine efflux to apoA-I of free cholesterol-loaded cells: reversed
[3]; 0.5% or 0.2%, FC-loaded cells
  removal of total cellular cholesterol: about 30%
